For assay [1], the system named is galactosamine, paracetamol and CCl4 as hepatotoxins. Briefly: Earlier RRL Jammu study: hepatoprotective effect against galactosamine, paracetamol and CCl4 as hepatotoxins, silymarin as reference. The class given is in vivo. The note with it: synthesized constituent; silymarin as reference material.
For assay [2], the system named is 'Acetaminophen' (APAP) induced hepatotoxicity. Briefly: Hepatoprotective activity (in vivo) against acetaminophen (paracetamol) induced hepatotoxicity after diethyl-ether inhalation. Particulars: mice; for Serum parameters GOT / Serum parameters GPT: unit is µmole pyruvate/min/L; for hepatoprotective activity percent, ALP / hepatoprotective activity percent, Bilirubin / hepatoprotective activity percent, GOT / hepatoprotective activity percent, GPT / hepatoprotective activity percent, Glutathione / hepatoprotective activity percent, Lipid peroxidation / hepatoprotective activity percent, Triglycerides: APAP, 50 mg kg-1 p.o., H = [1-(TC-V/VC-V)] × 100. The protocol: i. Animals: The pharmacological studies are conducted on Wistar albino rats (150-180g) and Swiss albino mice (25-30g) of either sex, colony - bred in the Institute's animal house. After procurement, all the animals are divided into different groups and are left for one week for acclimatization to experimentation room and are maintained on standard conditions (23±2°C, 60-70 % relative humidity and 12 h photo period). The animals are fed with standard rodents pellet diet and water ad libitum. There are six animals in each group except for general behaviour and acute toxicity studies where ten animals are used in each group.
Paracetamol (APAP, acetaminophen): It is a therapeutic agent widely used as analgesic/antipyretic drug. When taken in large doses it causes hepatic necrosis which leads to biochemical changes having clinical features similar to those of acute viral hepatitis. The similar effect is observed in animals. The toxic effect can be potentiated if it is given several hours after the anesthetic ether inhalation (Wells et. al., 1986).
Liver injury is induced by injecting paracetamol (200 mg.kg^-1) interaperitoneally in normal saline (pH 9.4) six hour after inhalation of anesthetic ether (4ml/4min/6animals) in a closed chamber. The control animals received the equal volume of vehicle. (Table 2)
Freshly prepared suspension (1%, w/v) in 0.2% gum acacia in normal saline is used for all the experiments except for toxicity studies where (10 %, w/v) suspension is used. Silymarin suspension (1%, w/v) in 0.2 % gum acacia is used as a reference standard (positive control).
The doses of TCA and APO individually and in mixture, silymarin (50 mg/kg, p.o. each) and vehicle (normal saline) are fed to different groups of mice at 72 hours, 48 hours and 24 hours, 1 hour before diethyl ether inhalation and 1hour after hepatotoxin (paracetamol, 200 mg.kg^-1, i.p.) given 6 hours after exposure to diethyl- ether. Blood is collected from orbital sinus in all the animals 18 hours after last treatment and serum separated for different estimations. A portion of the liver is processed for histopathological studies. (Table 2)
• GPT and GOT: Pyruvate formed by transamination reaction is determined spectrophotometrically after reaction with 2,4-dinitrophenylhydrazine (Reitman and Frankel, 1957). • ALP : p-nitrophenol formed in alkaline medium is measured spectrophotometrically using p-nitrophenyl phosphate as substrate (Walter and Schutt, 1974). • Bilirubin : Total bilirubin is measured by diazotization reaction with NaNO2 (Malloy and Evelyn, 1937) • Triglycerides : Triglycerides from serum are extracted with isopropanol and sopanified with KOH. The liberated glycerol is converted to formaldehyde by periodate and determined after reaction with acetyl acetone. Triolein is used as standard (Neri and Firings, 1973). • Glutathione: It is determined after deproteination by reaction with DTNB (Ellman 1959 as modified by David 1987). • Lipid peroxidation: Thiobarbituric acid reacting substances are determined spectrophotometrically at 535 nm. Buege. and Aust. (1978).
Hepatoprotective activity (H) is calculated by the following equation: H = [1-(TC-V/VC-V)] × 100 [formula]
Where TC, VC, and V are drug + toxin, vehicle + toxin and vehicle treated groups of animals respectively.

The mark [3] stands for this setting: 50 mg kg-1 p.o. at 72 h, 48 h, 24 h, 1h before diethyl-ether and 1 h after APAP 200 mg kg-1 i.p., mean ± S.E.

Turning to `CCCCCCCC/C=C/CCCCCCCCCCCCCC(=O)O` [TCA, trans-tetracos-15-enoic acid], in assay [1], the “hepatoprotective effect against galactosamine, paracetamol and CCl4 as hepatotoxins” value is recorded as “dose related hepatoprotective effect”. Moreover, in assay [2] (setting [3]), the “Hepatic parameters Glutathione” value was 4.59±0.45 µ mole GSH/g liver, the “Serum parameters ALP” value is given as 34.95±1.89 µ mole of p-nitroplenol formed/min/ L, the “Serum parameters Bilirubin” value is given as 0.355±0.01 mg % and the “Serum parameters Triglycerides” value came to 23.53±1.77 mg %. In assay [2] (setting [3]), the “Serum parameters GOT” value is 561.83±51.52 Units and the “Serum parameters GPT” value was 1008.04±63.66 Units. In addition, in assay [2], the “hepatoprotective activity percent, ALP” value is listed as “(52.96) percent”; the “hepatoprotective activity percent, Bilirubin” value is listed as “(56.48) percent”; the “hepatoprotective activity percent, GOT” value is recorded as “(54.92) percent”; the “hepatoprotective activity percent, GPT” value is recorded as “(57.99) percent”. In assay [2], the “hepatoprotective activity percent, Glutathione” value is “(42.35) percent”; the “hepatoprotective activity percent, Lipid peroxidation” value is “(55.48) percent”; the “hepatoprotective activity percent, Triglycerides” value is “(66.05) percent”.

With `COc1cc(C(C)=O)ccc1O` [APO, Apocynin], in assay [2] (setting [3]), the “Hepatic parameters Glutathione” value was 4.60±0.42 µ mole GSH/g liver, the “Hepatic parameters Lipid peroxidation” value was determined as 48.32±2.13 n moles MDA/g liver, the “Serum parameters ALP” value is 29.71±1.89 µ mole of p-nitroplenol formed/min/ L and the “Serum parameters Bilirubin” value was 0.43±0.01 mg %. Moreover, in assay [2] (setting [3]), the “Serum parameters Triglycerides” value came out at 30.50±1.36 mg %, the “Serum parameters GOT” value worked out at 755.04±112.04 Units and the “Serum parameters GPT” value came to 1334.72±98.34 Units. Further, in assay [2], the “hepatoprotective activity percent, ALP” value is reported as “(67.91) percent”; the “hepatoprotective activity percent, Bilirubin” value is “(42.59) percent”; the “hepatoprotective activity percent, GOT” value is “(36.07) percent”; the “hepatoprotective activity percent, GPT” value is “(42.27) percent”. For the same molecule, in assay [2], the “hepatoprotective activity percent, Glutathione” value was “(42.60) percent”; the “hepatoprotective activity percent, Lipid peroxidation” value is “(38.34) percent”; the “hepatoprotective activity percent, Triglycerides” value is given as “(36.68) percent”.

For the origin of these results see EP1509285B1, “SYNERGISTIC COMPOSITION OF TRANS-TETRACOS-15-ENOIC ACID AND APOCYNIN AND USE THEREOF” (COUNCIL OF SCIENTIFIC AND INDUSTRIAL RESEARCH, priority 2002, dated 2003).
